Results taken from patent publication US11897904B2, “Herbicidally active bicyclic benzamides” (Bayer Aktiengesellschaft, priority 2017, dated 2024).

Experiments:
AMARE [1] = assay: Pre-emergence herbicidal action; assay type: in vivo, Amaranthus retroflexus; conditions: scored visually after about 3 weeks vs untreated controls
Text: (§1) 1. Pre-Emergence Herbicidal Action and Crop Plant Compatibility
(§2) Seeds of monocotyledonous and dicotyledonous weed plants and crop plants are placed in plastic or organic planting pots and covered with soil. The compounds of the invention, formulated in the form of wettable powders (WP) or as emulsion concentrates (EC), are then applied onto the surface of the covering soil as aqueous suspension or emulsion with addition of 0.5% additive at a water application rate of 600 l/ha (converted). After the treatment, the pots are placed in a greenhouse and kept under good growth conditions for the trial plants. After about 3 weeks, the effect of the preparations is scored visually in comparison with untreated controls as percentages. The tables below show the herbicidal activity of numerous compounds according to the invention against important harmful plants. For example, 100% activity=the plants have died, 0% activity=like control plants.

ABUTH [2] = assay: Post-emergence herbicidal action; assay type: in vivo, Abutilon theophrasti; conditions: post-emergence, rated visually after about 3 weeks vs untreated controls
Protocol: (§3) 2. Post-Emergence Herbicidal Action and Crop Plant Compatibility
(§4) Seeds of monocotyledonous and dicotyledonous weeds and crop plants are placed in sandy loam in plastic or organic planting pots, covered with soil and cultivated in a greenhouse under controlled growth conditions. 2 to 3 weeks after sowing, the test plants are treated at the one-leaf stage. The compounds of the invention, formulated in the form of wettable powders (WP) or as emulsion concentrates (EC), are then sprayed onto the green parts of the plants as aqueous suspension or emulsion with addition of 0.5% additive at a water application rate of […] (converted). After the test plants had been kept in the greenhouse under optimum growth conditions for about 3 weeks, the activity of the preparations is rated visually in comparison to untreated controls. The tables below show the herbicidal activity of numerous compounds according to the invention against important harmful plants. For example, 100% activity=the plants have died, 0% activity=like control plants.

STEME [3] = assay: Post-emergence herbicidal action; assay type: in vivo, Stellaria media; conditions: rated visually after about 3 weeks vs untreated controls
Protocol: as §3, §4

AMARE [4] = assay: Post-emergence herbicidal action; assay type: in vivo, Amaranthus retroflexus; conditions: rated visually after about 3 weeks vs untreated controls
Protocol: as §3, §4

VERPE [5] = assay: Pre-emergence herbicidal action; assay type: in vivo, Veronica persica; conditions: 320 g/ha, scored visually after about 3 weeks vs untreated controls
Text: as §1, §2

VERPE [6] = assay: Post-emergence herbicidal action; assay type: in vivo, Veronica persica; conditions: 80 g/ha, rated visually after about 3 weeks vs untreated controls
Protocol: as §3, §4

MATIN [7] = assay: Pre-emergence herbicidal action; assay type: in vivo, Matricaria inodora; conditions: pre-emergence, 320 g/ha, scored visually after about 3 weeks vs untreated controls
Text: as §1, §2

MATIN [8] = assay: Post-emergence herbicidal action; assay type: in vivo, Matricaria inodora; conditions: 80 g/ha, rated visually after about 3 weeks vs untreated controls
Protocol: as §3, §4

SETVI [9] = assay: Post-emergence herbicidal action; assay type: in vivo, Setaria viridis; conditions: 80 g/ha, rated visually after about 3 weeks vs untreated controls
Protocol: as §3, §4

PHBPU = assay: Post-emergence herbicidal action; assay type: in vivo, Ipomoea purpurea; conditions: rated visually after about 3 weeks vs untreated controls
Protocol: as §3, §4

ECHCG [10] = assay: Pre-emergence herbicidal action; assay type: in vivo, Echinochloa crus-galli; conditions: 320 g/ha, scored visually after about 3 weeks vs untreated controls
Text: as §1, §2

ECHCG [11] = assay: Post-emergence herbicidal action; assay type: in vivo, Echinochloa crus-galli; conditions: 80 g/ha, rated visually after about 3 weeks vs untreated controls
Protocol: as §3, §4

SETVI [12] = assay: Pre-emergence herbicidal action; assay type: in vivo, Setaria viridis; conditions: pre-emergence, 320 g/ha, scored visually after about 3 weeks vs untreated controls
Text: as §1, §2

ABUTH [13] = assay: Pre-emergence herbicidal action; assay type: in vivo, Abutilon theophrasti; conditions: pre-emergence, 320 g/ha, scored visually after about 3 weeks vs untreated controls
Text: as §1, §2

VIOTR [14] = assay: Pre-emergence herbicidal action; assay type: in vivo, Viola tricolor; conditions: 320 g/ha, scored visually after about 3 weeks vs untreated controls
Text: as §1, §2

VIOTR [15] = assay: Post-emergence herbicidal action; assay type: in vivo, Viola tricolor; conditions: rated visually after about 3 weeks vs untreated controls
Protocol: as §3, §4

STEME [16] = assay: Pre-emergence herbicidal action; assay type: in vivo, Stellaria media; conditions: scored visually after about 3 weeks vs untreated controls
Text: as §1, §2

Structure (SMILES): Cn1nnnc1NC(=O)c1ccc(Cl)c2c1[S+]([O-])CS2 (stereo not shown) [Example 2-254]
- herbicidal activity AMARE (AMARE [1]; 80 g/ha): 80%

Structure (SMILES): CSc1ccc(C(=O)Nc2nnnn2C)c2c1OC(F)(F)O2 [Example 2-13]
- herbicidal activity ABUTH (ABUTH [2]; 80 g/ha): 80%
- herbicidal activity STEME (STEME [3]; 80 g/ha): 80%
- herbicidal activity AMARE (AMARE [4]; 80 g/ha): 80%
- herbicidal activity VERPE (VERPE [5]): 90%
- herbicidal activity VERPE (VERPE [6]): 90%

Structure (SMILES): Cn1nnnc1NC(=O)c1ccc(S(C)(=O)=O)c2c1OC(F)(F)O2 [Example 2-15]
- herbicidal activity AMARE (AMARE [4]; 80 g/ha): 80%
- herbicidal activity VERPE (VERPE [5]): 90%

Structure (SMILES): Cn1nnnc1NC(=O)c1ccc(C(F)F)c2c1OC[S+]2[O-] (stereo not shown) [Example 2-69]
- herbicidal activity ABUTH (ABUTH [2]; 80 g/ha): 90%
- herbicidal activity STEME (STEME [3]; 80 g/ha): 100%
- herbicidal activity MATIN (MATIN [7]): 90%
- herbicidal activity MATIN (MATIN [8]): 90%
- herbicidal activity SETVI (SETVI [9]): 80%
- herbicidal activity PHBPU (PHBPU; 80 g/ha): 80%
- herbicidal activity ECHCG (ECHCG [10]): 90%
- herbicidal activity ECHCG (ECHCG [11]): 100%
- herbicidal activity AMARE (AMARE [4]; 80 g/ha): 90%
- herbicidal activity SETVI (SETVI [12]): 90%
- herbicidal activity ABUTH (ABUTH [13]): 100%
- herbicidal activity VERPE (VERPE [5]): 90%
- herbicidal activity VERPE (VERPE [6]): 90%
- herbicidal activity AMARE (AMARE [1]; 320 g/ha): 100%
- herbicidal activity VIOTR (VIOTR [14]): 100%
- herbicidal activity VIOTR (VIOTR [15]; 80 g/ha): 100%
- herbicidal activity STEME (STEME [16]; 320 g/ha): 90%

Structure (SMILES): Cc1ccc(C(=O)Nc2nnnn2C)c2c1SCO2 [Example 2-50]
- herbicidal activity PHBPU (PHBPU; 80 g/ha): 80%

Structure (SMILES): Cn1nnnc1NC(=O)c1ccc(C(F)(F)F)c2c1SCS2 [Example 2-21, 7-(trifluoromethyl)-1,3-benzodithiolane-N-(1-methyltetrazol-5-yl)-4-carboxamide]
- herbicidal activity STEME (STEME [3]; 20 g/ha): 80%
- herbicidal activity VIOTR (VIOTR [15]; 20 g/ha): 80%
- herbicidal activity STEME (STEME [16]; 80 g/ha): 90%

Structure (SMILES): Cn1nnnc1NC(=O)c1ccc(C(F)(F)F)c2c1SC[S+]2[O-] (stereo not shown) [Example 2-255]
- herbicidal activity STEME (STEME [3]; 20 g/ha): 80%
- herbicidal activity VIOTR (VIOTR [15]; 20 g/ha): 80%

Structure (SMILES): CSc1ccc(C(=O)Nc2nnnn2C)c2c1SCS2 [Example 2-253]
- herbicidal activity ABUTH (ABUTH [2]; 20 g/ha): 90%

Structure (SMILES): Cn1ncnc1NC(=O)c1ccc(C(F)(F)F)c2c1OCS2 [Example 1-35]
- herbicidal activity ABUTH (ABUTH [2]; 20 g/ha): 80%
- herbicidal activity VIOTR (VIOTR [15]; 20 g/ha): 80%

Structure (SMILES): Cn1ncnc1NC(=O)c1ccc(C(F)(F)F)c2c1OCS2(=O)=O [Example 1-65]
- herbicidal activity PHBPU (PHBPU; 20 g/ha): 80%
- herbicidal activity AMARE (AMARE [4]; 20 g/ha): 80%

Structure (SMILES): CCn1nnnc1NC(=O)c1ccc(C(F)(F)F)c2c1OCS2 [Example 3-52]
- herbicidal activity ABUTH (ABUTH [2]; 80 g/ha): 80%
- herbicidal activity STEME (STEME [3]; 80 g/ha): 100%
- herbicidal activity MATIN (MATIN [7]): 90%
- herbicidal activity MATIN (MATIN [8]): 90%
- herbicidal activity SETVI (SETVI [9]): 100%
- herbicidal activity PHBPU (PHBPU; 80 g/ha): 100%
- herbicidal activity ECHCG (ECHCG [10]): 90%
- herbicidal activity ECHCG (ECHCG [11]): 100%
- herbicidal activity AMARE (AMARE [4]; 80 g/ha): 100%
- herbicidal activity SETVI (SETVI [12]): 90%
- herbicidal activity ABUTH (ABUTH [13]): 90%
- herbicidal activity VERPE (VERPE [5]): 80%
- herbicidal activity VERPE (VERPE [6]): 100%
- herbicidal activity AMARE (AMARE [1]; 320 g/ha): 100%
- herbicidal activity VIOTR (VIOTR [14]): 90%
- herbicidal activity VIOTR (VIOTR [15]; 80 g/ha): 100%
- herbicidal activity STEME (STEME [16]; 320 g/ha): 100%

Structure (SMILES): Cn1nnnc1NC(=O)c1ccc(C(F)F)c2c1SCS2 [Example 2-22]
- herbicidal activity PHBPU (PHBPU; 20 g/ha): 80%
- herbicidal activity VIOTR (VIOTR [15]; 20 g/ha): 100%
